Columns and labels:
[1] = tested on: TGF-beta induced SMAD signaling; experiment: RDSR (RD SMAD reporter) Cellular Reporter Assay; type: cell-based; settings: Homo sapiens; 200 pg/ml rhTGF-beta1, 24 h; read-out: RD-SMAD reporter activity
Text: TGF-β signaling is triggered when the activated TGF-β homodimer binds to the TGF-β receptor 2, which in turn leads to the recruitment and phosphorylation of TGF-β receptor 1 (ALK5). Activated TGF-β receptor 1 phosphorylates the signal transduction molecules SMAD2 and SMAD3. These bind to common mediator SMAD4 and translocate to the nucleus where they bind to short conserved DNA sequences called the SMAD binding element and induce the transcription of various target genes. […] Certain example compounds were also or alternatively assayed using the RDSR Cellular Reporter Assay. Overview and Design: The RD SMAD reporter (RDSR) cell line was generated by stabily integrating the SMAD cellular reporter plasmid (Promega, pGL4.48[luc2P/SBE/Hygro]) into the human rhabdomyosarcoma cell line RD (ATCC, CCL-136). Once SMAD signaling is triggered, with, for example, the addition of TGF-β 1, receptor activated SMADs bind the SMAD binding elements (SBEs) leading to the expression of intracellular luciferase. To determine the potency of compounds at inhibiting TGF-beta induced SMAD signaling, the RDSR reporter system was utilized. The rhabdomyosarcoma line RD (ATCC, CCL-136) was transfected with a SMAD reporter vector (Promega, E3671) and a polyclonal stable cell line was selected using hygromycin B. The transfected vector contains three copies of a SMAD-binding element (SBE) that drive transcription of the luciferase reporter gene luc2P (Photinus pyralis). luc2P is a synthetically-derived luciferase sequence with humanized codon optimization that is designed for high expression and reduced anomalous transcription. The luc2P gene contains hPEST, a protein destabilization sequence, which allows luc2P protein levels to respond more quickly than those of luc2 to induction of transcription. The intracellular luciferase is quantified by the addition of equal volume (100 μl) of ONE-GLO substrate (Promega, E6120) and read within ten minutes on the Envision plate reader. The stable RDSR cell line was tested by evaluating the response to human TGF-β1 (R&D Systems, 7754-BH-005) as well as human myostatin (R&D Systems, 788-G8-010/CF) in a concentration dependent manner after twenty-four hours of stimulation. […] For compound evaluation, the tool drugs Galunisertib and Vactosertib were included as positive controls. The tool drugs and the compounds of the invention being tested were all incubated with cells for one hour at 37° C. before stimulation with 200 pg/ml rhTGF-beta1 for twenty-four hours. The activity of the reporter was determined with the addition of ONE-GLO (Promega) substrate and luminescence counts collected on the Envision plate reader (Perkin Elmer). […] The activity of compounds of the invention as determined using this method are reported in the third column of Table 1, below.

ALK-5 = ALK-5 (Homo sapiens (Human), UniProt P36897); experiment: LanthaScreen Eu Kinase Binding Assay, ALK-5; settings: for IC50: read-out: Kinase Inhibition: ALK5 IC50
Procedure: Activity determinations and selectivity were conducted by Thermo Fisher Scientific “SelectScreen™ Biochemical Kinase Profiling Service” using their “LanthaScreen™ Eu Kinase Binding Assay Screening” (www.thermofisher.com/selectscreen). Binding of an Alexa Fluor™ conjugate or “tracer” to a kinase is detected by addition of a Eu-labeled anti-tag antibody. Binding of the tracer and antibody to a kinase results in a high degree of FRET, whereas displacement of the tracer with a kinase inhibitor results in a loss of FRET. This assay is carried out by mixing the compound tested with the reagents and reading, no development step is required. Life Technologies' Kinase Tracers are based on ATP-competitive kinase inhibitors, making them suitable for detection of any compounds that bind to the ATP site. Inhibitors that bind the ATP site include both Type I kinase inhibitors, which bind solely to the ATP site, and Type II inhibitors (e.g., Gleevec®/Imatinib, Sorafenib, BIRB-796), which bind to both the ATP site and a second site often referred to as the allosteric site. […] For 10 point titrations, 3-fold serial dilutions are conducted from the starting concentration (see Table 2 below). [table] All Kinase/Antibody Mixtures are diluted to a 2× working concentration in the specified kinase buffer. The 4× AlexaFluor labeled Tracer is prepared in Kinase Buffer. Bar-coded, low volume, white 384-well plate (Greiner Cat. #784207) […] 2. 3.84 μL—Kinase Buffer […] 4. 4.0 μL—4× Tracer 5. 30-second plate shake 6. 60-minute incubation at room temperature 7. […] The LanthaScreen Eu Kinase Binding Assay data is analyzed using the equations in Table 3 for each set of data points. [table] Data generated were plotted using the graphing software XLfit from IDBS. The dose response curve is curve fit to model number 205.

Sequence of ALK-5 (P36897 34-503): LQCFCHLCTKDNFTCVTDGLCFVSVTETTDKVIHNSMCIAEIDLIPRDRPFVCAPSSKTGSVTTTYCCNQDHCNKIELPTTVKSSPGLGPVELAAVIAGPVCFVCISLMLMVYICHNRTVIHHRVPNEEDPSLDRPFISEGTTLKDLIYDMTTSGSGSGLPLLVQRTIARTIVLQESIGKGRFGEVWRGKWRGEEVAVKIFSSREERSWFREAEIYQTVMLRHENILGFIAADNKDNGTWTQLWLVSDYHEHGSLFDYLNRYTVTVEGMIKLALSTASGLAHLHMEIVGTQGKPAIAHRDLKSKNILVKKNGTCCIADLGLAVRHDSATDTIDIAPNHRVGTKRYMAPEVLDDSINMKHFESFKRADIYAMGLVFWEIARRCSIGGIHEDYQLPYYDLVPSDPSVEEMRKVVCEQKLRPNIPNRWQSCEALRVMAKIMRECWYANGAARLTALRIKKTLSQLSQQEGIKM

| IC50 [1] | Kinase Selectivity: ALK2 IC50/ ALK5 IC50 (ALK-5) | IC50 (ALK-5) | SMILES |
| --- | --- | --- | --- |
| < 0.1 µM | (++) (10<ALK2/ALK5<100=[++]) | < 0.01 µM | Cc1cccc2c(Nc3ccnc(Nc4ccc(N5CCN(C)CC5)cc4)n3)cnnc12 [EX-33, N4-(8-methylcinnolin-4-yl)-N2-(4-(4-methylpiperazin-1-yl)phenyl)pyrimidine-2,4-diamine] |
| 0.1 to 1 µM | (+) (≤10=[+]) | 0.01 to 0.1 µM | Cc1cccc2c(Nc3nc(Nc4ccc(N5CCNCC5)cc4)ncc3F)cnnc12 [EX-09, 5-fluoro-N4-(8-methyl-cinnolin-4-yl)-N2-(4-(piperazin-1-yl)phenyl)pyrimidine-2,4-diamine] |
| 0.1 to 1 µM | (++) (10<ALK2/ALK5<100=[++]) | < 0.01 µM | Clc1cccc2c(Nc3ccnc(Nc4ccc(N5CCNCC5)cc4)n3)cnnc12 [EX-50, N4-(8-chlorocinnolin-4-yl)-N2-(4-(piperazin-1-yl)phenyl)pyrimidine-2,4-diamine] |
| < 0.1 µM | (+) (≤10=[+]) | < 0.01 µM | Cc1cccc2c(Nc3ccnc(Nc4cccc(C5CCNCC5)c4)n3)cnnc12 [EX-36, N4-(8-methylcinnolin-4-yl)-N2-(3-(piperidin-4-yl)phenyl)pyrimidine-2,4-diamine] |
| 0.1 to 1 µM | (+) (≤10=[+]) | < 0.01 µM | Cc1cccc2c(Nc3ccnc(Nc4cc(F)cc(CC5CCN(C)CC5)c4)n3)cnnc12 [EX-43, N2-(3-fluoro-5-((1-methylpiperidin-4-yl)methyl)phenyl)-N4-(8-methylcinnolin-4-yl)pyrimidine-2,4-diamine] |
| < 0.1 µM | (+) (≤10=[+]) | < 0.01 µM | Cc1cccc2c(Nc3ccnc(Nc4cccc(CN5CCN(C)CC5)c4)n3)cnnc12 [EX-04, N4-(8-methyl-cinnolin-4-yl)-N2-(3-((4-methyl-piperazin-1-yl)methyl)phenyl)pyrimidine-2,4-diamine] |
| < 0.1 µM | (++) (10<ALK2/ALK5<100=[++]) | < 0.01 µM | Cc1cccc2c(Nc3ccnc(Nc4ccc(CN5CCN(C)CC5)c(C(F)(F)F)c4)n3)cnnc12 [EX-28, N4-(8-methylcinnolin-4-yl)-N2-(4-((4-methylpiperazin-1-yl)methyl)-3-(trifluoromethyl)phenyl)pyrimidine-2,4-diamine] |
| 0.1 to 1 µM | (++) (10<ALK2/ALK5<100=[++]) | 0.01 to 0.1 µM | Cc1cccc2c(Nc3ccnc(Nc4ccc(C(C)(C)C)cc4)n3)cnnc12 [EX-54, N2-(4-(tert-butyl)phenyl)-N4-(8-methylcinnolin-4-yl)pyrimidine-2,4-diamine] |
| < 0.1 µM | (++) (10<ALK2/ALK5<100=[++]) | < 0.01 µM | Cc1cccc2c(Nc3ccnc(Nc4ccc(N5CC6CC5CN6C)cc4)n3)cnnc12 (stereo not drawn) [EX-45, N2-(4-(5-methyl-2,5-diazabicyclo[2.2.1]heptan-2-yl)phenyl)-N4-(8-methylcinnolin-4-yl)pyrimidine-2,4-diamine] |
| < 0.1 µM | (++) (10<ALK2/ALK5<100=[++]) | 0.01 to 0.1 µM | Cc1cccc2c(Nc3ccnc(Nc4ccc(F)c(N5CCOCC5)c4)n3)cnnc12 [EX-38, N2-(4-fluoro-3-morpholinophenyl)-N4-(8-methylcinnolin-4-yl)pyrimidine-2,4-diamine] |
| < 0.1 µM | (++) (10<ALK2/ALK5<100=[++]) | < 0.01 µM | Cc1cccc2c(Nc3ccnc(Nc4ccc(N5CCNCC5)cc4)n3)cnnc12 [EX-48, N4-(8-methylcinnolin-4-yl)-N2-(4-(piperazin-1-yl)phenyl)pyrimidine-2,4-diamine] |
| < 0.1 µM | (++) (10<ALK2/ALK5<100=[++]) | < 0.01 µM | Cc1cc(F)cc2c(Nc3ccnc(Nc4ccc(N5CCN(C)CC5)cc4)n3)cnnc12 [EX-07, N4-(6-fluoro-8-methylcinnolin-4-yl)-N2-(4-(4-methylpiperazin-1-yl)phenyl)pyrimidine-2,4-diamine] |
| 0.1 to 1 µM | (++) (10<ALK2/ALK5<100=[++]) | < 0.01 µM | Cc1cccc2c(Nc3ccnc(Nc4cc(CN5CCNCC5)ccc4F)n3)cnnc12 [EX-03, N2-(2-fluoro-5-(piperazin-1-yl-methyl)phenyl)-N4-(8-methyl-cinnolin-4-yl)-pyrimidine-2,4-diamine] |
| 0.1 to 1 µM | (+) (≤10=[+]) | < 0.01 µM | Cc1cccc2c(Nc3ccnc(Nc4cc(N5CCOCC5)cc(C(F)(F)F)c4)n3)cnnc12 [EX-39, N4-(8-methylcinnolin-4-yl)-N2-(3-morpholino-5-(trifluoromethyl)phenyl)pyrimidine-2,4-diamine] |
| < 0.1 µM | (+++) (100≤ALK2/ALK5=[+++]) | < 0.01 µM | Cc1cccc2c(Nc3ccnc(Nc4ccc(N5CCNCC5)cc4F)n3)cnnc12 [EX-22, N2-(2-fluoro-4-(piperazin-1-yl)phenyl)-N4-(8-methylcinnolin-4-yl)pyrimidine-2,4-diamine] |
| 0.1 to 1 µM | (++) (10<ALK2/ALK5<100=[++]) | 0.01 to 0.1 µM | Cc1cccc2c(Nc3ccnc(Nc4ccc(N5CCN(C)CC5)cc4F)n3)cnnc12 [EX-21, N2-(2-fluoro-4-(4-methyl-piperazin-1-yl)phenyl)-N4-(8-methyl-cinnolin-4-yl)-pyrimidine-2,4-diamine] |
| < 0.1 µM | (++) (10<ALK2/ALK5<100=[++]) | < 0.01 µM | Cc1cccc2c(Nc3ccnc(Nc4ccc(CN5CCN(C)CC5)cc4)n3)cnnc12 [EX-26, N4-(8-methylcinnolin-4-yl)-N2-(4-((4-methylpiperazin-1-yl)methyl)phenyl)pyrimidine-2,4-diamine] |
| < 0.1 µM | (+) (≤10=[+]) | < 0.01 µM | Cc1cccc2c(Nc3ccnc(Nc4cccc(CN5CCNCC5)c4)n3)cnnc12 [EX-31, N4-(8-methylcinnolin-4-yl)-N2-(3-(piperazin-1-ylmethyl)phenyl)pyrimidine-2,4-diamine] |
| < 0.1 µM | (++) (10<ALK2/ALK5<100=[++]) | < 0.01 µM | Cc1cc(F)cc2c(Nc3ccnc(Nc4ccc(N5CCNCC5)cc4)n3)cnnc12 [EX-15, N4-(6-fluoro-8-methyl-cinnolin-4-yl)-N2-(4-(piperazin-1-yl)phenyl)-pyrimidine-2,4-diamine] |
| < 0.1 µM | (++) (10<ALK2/ALK5<100=[++]) | < 0.01 µM | Cc1c(F)ccc2c(Nc3ccnc(Nc4ccc(N5CCOCC5)cc4)n3)cnnc12 [EX-41, N4-(7-fluoro-8-methylcinnolin-4-yl)-N2-(4-morpholinophenyl)pyrimidine-2,4-diamine] |
| < 0.1 µM | (++) (10<ALK2/ALK5<100=[++]) | < 0.01 µM | Cc1c(F)ccc2c(Nc3ccnc(Nc4ccc(N5CCN(C)CC5)cc4)n3)cnnc12 [EX-01, N4-(7-fluoro-8-methylcinnolin-4-yl)-N2-(4-(4-methyl-piperazin-1-yl)-phenyl)-pyrimidine-2,4-diamine] |
